# Literature values, collected in patent US20240277651A1, “MIXED GLYCEROL ESTER COMPOSITION” (priority 2021, published 2024).
# Test system: pathogenic, gram-positive bacteria
# Conditions: Skrivanova et al, Veterinarni Medicina, 51, 2006
smiles,measurement,value
CCCCCCCCCCCC(=O)OCC(O)CO (stereo not shown) [monolaurin],"Inhibitory action on pathogenic, gram-positive bacteria",inhibitory action
